Assay results: publication PMC4386733 (Cell, 2013)
Entries after “also recorded” stand apart in the source; their conditions may differ.

How the values were obtained:
[1] = target: hSTING^H232 (aa 140–379) (Homo sapiens, UniProt Q86WV6, H232R); experiment: ITC binding to hSTING^H232; settings: complex printed as hSTING^H232 in b72 (Figure 4C)
[2] = system: THP1 cells; experiment: CXCL10 ELISA in THP1 cells after cGAMP stimulation; type: cell-based, human; settings: for EC50 comparison: Digitonin-mediated permeabilization
[3] = target: T1, hSTING^R232 (Homo sapiens, UniProt Q86WV6, H232R); settings: ITC, Chen laboratory; ref Zhang et al., 2013; cited from earlier work
[4] = target: hSTING^H232 (Homo sapiens, UniProt Q86WV6); experiment: IFNB1 luciferase reporter in HEK293T cells, hSTING^H232; settings: cGAMP isomers and c[di-GMP] with digitonin, DMXAA in medium
[5] = system: mSting; settings: ref Conlon et al., 2013; cited from earlier work
[6] = target: hSTING^R232/A162 (Homo sapiens, UniProt Q86WV6, H232R/S162A); experiment: ITC binding to hSTING^R232/A162
[7] = target: hSTING S162I mutant (Homo sapiens, UniProt Q86WV6, S162I); experiment: IFNB1 luciferase reporter in HEK293T cells, hSTING S162I; type: cell-based; settings: HEK293T cellular assay
[8] = target: hSTING^H232/A162 (S162A mutant) (Homo sapiens, UniProt Q86WV6, S162A); experiment: ITC binding to S162A mutant of hSTING^H232
[9] = system: hSTING; settings: ref Conlon et al., 2013; cited from earlier work
[10] = system: BMDMs; experiment: Western blot of Tbk1 and Irf3 phosphorylation in BMDMs; type: cell-based, mouse; settings: 2 and 4 hr after treatment, compared to the two other isomers
[11] = system: bone-marrow-derived macrophages (BMDMs); settings: 20 µM added to medium, 4 hr, relative to mock treatment
[12] = target: T1, hSTING^R232; experiment: IFNB1 luciferase reporter in HEK293T cells, hSTING^R232; settings: digitonin delivery
[13] = target: hSTING^THP1 (Homo sapiens, UniProt Q86WV6, G230A/H232R/H72R/R293Q); experiment: IFNB1 luciferase reporter in HEK293T cells, hSTING^THP1; settings: digitonin delivery, c[di-GMP] 5 and 10 µM
[14] = addition to medium without Digitonin, 18 hr

hSTING^H232, sequence (Q86WV6 whole entry): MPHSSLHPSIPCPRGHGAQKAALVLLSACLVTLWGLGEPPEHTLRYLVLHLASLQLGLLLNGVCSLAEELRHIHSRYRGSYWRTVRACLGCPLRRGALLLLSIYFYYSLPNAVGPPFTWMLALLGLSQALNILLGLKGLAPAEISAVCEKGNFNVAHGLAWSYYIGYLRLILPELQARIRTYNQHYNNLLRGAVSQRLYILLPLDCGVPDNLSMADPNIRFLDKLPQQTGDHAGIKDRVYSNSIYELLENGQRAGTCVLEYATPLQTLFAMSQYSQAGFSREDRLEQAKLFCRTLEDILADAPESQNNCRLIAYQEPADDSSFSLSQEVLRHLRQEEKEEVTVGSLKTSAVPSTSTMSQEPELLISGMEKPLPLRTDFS
hSTING^R232/A162, sequence (Q86WV6 140-379 S162A/H232R): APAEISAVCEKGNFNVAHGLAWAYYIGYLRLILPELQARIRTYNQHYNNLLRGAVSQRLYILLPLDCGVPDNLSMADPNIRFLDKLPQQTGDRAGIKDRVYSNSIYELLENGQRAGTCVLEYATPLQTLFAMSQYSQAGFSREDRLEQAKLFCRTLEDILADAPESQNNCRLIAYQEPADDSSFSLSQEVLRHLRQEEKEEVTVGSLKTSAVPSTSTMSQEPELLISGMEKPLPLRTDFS
T1 sequence (Q86WV6 whole entry H232R): as the sequence (Q86WV6 whole entry) above, with H232R counted along it
hSTING^H232/A162 (S162A mutant), sequence (Q86WV6 140-379 S162A): as the sequence (Q86WV6 140-379 S162A/H232R) above, with R93H counted along it
hSTING^THP1, sequence (Q86WV6 whole entry H72R/G230A/H232R/R293Q): as the sequence (Q86WV6 whole entry) above, with H72R, G230A, H232R, R293Q counted along it
hSTING^H232 (aa 140–379), sequence (Q86WV6 140-379 H232R): as the sequence (Q86WV6 140-379 S162A/H232R) above, with A23S counted along it
hSTING S162I mutant, sequence (Q86WV6 whole entry S162I): as the sequence (Q86WV6 whole entry) above, with S162I counted along it

SMILES: Nc1nc2c(ncn2[C@@H]2O[C@@H]3COP(=O)(O)O[C@@H]4[C@H](O)[C@@H](COP(=O)(O)O[C@@H]2[C@@H]3O)O[C@H]4n2cnc3c(N)ncnc32)c(=O)[nH]1
- Kd [1]: 170 nM
- EC50 comparison [2]: no difference in the EC50 values
- stimulation more effective than c[G(2′,5′)pA(3′,5′)p] [2, 14]: 2.9 fold
- stimulation more effective than c[G(3′,5′)pA(3′,5′)p] [2, 14]: 4.8 fold
- Kd [3]: 280 nM
- IFN reporter response [4]: no significant differences in stimulation

SMILES: Cc1ccc2c(=O)c3cccc(CC(=O)O)c3oc2c1C [DMXAA, 5,6-dimethylxanthenone-4-acetic acid]
- activation of mSting [5]: activates mSting
- binding (ITC) ([6]; 25°C): binding
- stoichiometry N value of binding curve ([6]; expected 1): ~1.5
- IFN induction [7]: IFN induction was not observed
- binding (ITC) ([8]; 25°C): binding
- stoichiometry N value of binding curve ([8]; expected 1): ~1.5
- IFN reporter response [4]: nonresponsive
- effect on hSTING [9]: no effect on hSTING

SMILES: Nc1nc2c(ncn2[C@@H]2O[C@@H]3COP(=O)(O)O[C@H]4[C@@H](O)[C@H](n5cnc6c(N)ncnc65)O[C@@H]4COP(=O)(O)O[C@@H]2[C@@H]3O)c(=O)[nH]1 [c[G(2′,5′)pA(3′,5′)p]]
- EC50 comparison [2]: no difference in the EC50 values

SMILES: Nc1nc2c(ncn2[C@@H]2O[C@@H]3COP(=O)(O)O[C@H]4[C@@H](O)[C@H](n5cnc6c(N)ncnc65)O[C@@H]4COP(=O)(O)O[C@H]3[C@H]2O)c(=O)[nH]1 [c[G(3′,5′)pA(3′,5′)p]]
- Tbk1 and Irf3 protein phosphorylation [10]: highest levels of Tbk1 and Irf3 protein phosphorylation
- Ccl5 mRNA level increase [11]: 38 fold
- Ifnb1 mRNA level increase [11]: 1024 fold
- Il6 mRNA level increase [11]: 2624 fold

SMILES: Nc1nc2c(ncn2[C@@H]2O[C@@H]3COP(=O)(O)O[C@H]4[C@@H](O)[C@H](n5cnc6c(=O)[nH]c(N)nc65)O[C@@H]4COP(=O)(O)O[C@H]3[C@H]2O)c(=O)[nH]1 [c[di-GMP]]
- IFN reporter response [4]: nonresponsive
- IFN reporter response [12]: residual response to high concentrations of c[di-GMP]
- IFN reporter response [13]: residual response to high concentrations of c[di-GMP]; also recorded: reduced IFN-pathway activation
